Data: patent US6859735B1, “Computer systems for identifying pathways of drug action” (priority 1998, dated 2005)

Key:
[1] = system: pathway originating at calcineurin; experiment: Genome-wide correlation of FK506 expression responses against combined Cyc A and methotrexate pathway responses (scaling parameter); assay type: cell-based, Saccharomyces cerevisiae; conditions: location of the correlation peak versus scaling parameter applied to FK506 data
Method: The gene expression measurements illustrated in FIGS. 8A-C were made as detailed below. To generate the cyclosporin dose response curves, an overnight starter culture of S.cerevisiae strain R563 (Genotype: Mat a ura3-52 lys2-801 ade2-101 trpl-Δ63 his3-Δ200 leu2-Δ1 his3::HIS3) was diluted into 200 ml of YAPD plus 10 mM CaCl2 medium (see, e.g., Ausubel et al., eds., 1996, Current Protocols in Molecular Biology, John Wiley & Sons, Inc., especially ch. 13) to an OD600 of 0.1 and grown at 30° C. with 300 rpm shaking. After a 30 min, cyclosporin A dissolved in ethanol was added to cultures at final concentrations of 60, 30, 15, 6 and 3 μg/ml. Control cultures were treated with the same volume of just ethanol. Growth was monitored by OD600 and cells were harvested at OD600=1.4+/−0.1 by centrifugation for 2 min at ambient temperature in a Sorvall RC5C+centrifuge in a SLA-1500 rotor. […]
In all cases, polyA^+ RNA was isolated by oligo-dT cellulose chromatography using two selections by standard protocols (see, e.g., Sambrook et al. 1989, Molecular Cloning A Laboratory Manual, Cold Spring Harbor Laboratory Press). […] Extent of hybridization was determined by scanning with a prototype multi-frame CCD camera slides produced by Applied Precision, Inc. Images were processed by informatics and imported into the Inpharma database and analyzed using the MatLab data analysis package. […]

wild type yeast cells = conditions: at 10 micrograms/ml doxycycline, Gari et al. 1997; cited from earlier work
yeast = experiment: Growth of yeast under methotrexate exposure; assay type: cell-based, Saccharomyces cerevisiae; conditions: 100 μm methotrexate titration
Method: To generate methotrexate dose response curves, an overnight starter culture of S.cerevisiae strain BY4741 (Genotype: Mat a his3Δ0 leu2D0 ura3Δ0 met15Δ0) was diluted into 200 ml of SC medium (see, e.g., Ausubel et al, ch. 13) to an OD600 of 0.1 and grown at 30° C. with 300 rpm shaking. After 30 min, methotrexate dissolved in water was added to cultures at final concentrations of 200, 100, 50, 25, 6.2, and 3.1 μM. Control cultures were treated with the same volume of water. The rest of the procedure was as above.

yeast gene YOL031C = experiment: Transcript array gene expression response to graded methotrexate exposure, Hill function fit; assay type: cell-based, Saccharomyces cerevisiae
Excerpt: In model fitting, the drug and pathway responses are interpolated by approximating each by a single parameterized function. An exemplary model-fitting function appropriate for approximating transcriptional state data is the Hill function, which has adjustable parameters a, u0, and n. [formula]
The adjustable parameters are selected independently for each cellular constituent of the drug response and for each cellular constituent of the pathway response. Preferably, the adjustable parameters are selected so that for each cellular constituent of each pathway response the sum of the squares of the distances of H(pi,l) from Ri,k(pi,l) is minimized, and so that for each cellular constituent of the drug response the sum of the squares of the distances of H(tl) from Dk(tl) is minimized. This preferable parameter adjustment method is known in the art as a least squares fit of H( ) to Ri,k( ) or to Dk( ). Other possible model functions are based on polynomial fitting, for example by various known classes of polynomials.
Model fitting with a Hill function is illustrated with respect to FIGS. 3 and 4. As discussed, FIG. 3 illustrates an example of a pathway perturbed by methotrexate and identified by measurement. This figure illustrates the mRNA expression levels of 30 genes of the yeast S. cerevisiae that, of the approximately 6000 genes in the genome of this yeast, had the largest expression changes in response to six different exposure levels of methotrexate. FIG. 4 illustrates a fit of the pathway response of one of these gene expression levels by a Hill function. […]
In all cases, polyA^+ RNA was isolated by oligo-dT cellulose chromatography using two selections by standard protocols (see, e.g., Sambrook et al. 1989, Molecular Cloning A Laboratory Manual, Cold Spring Harbor Laboratory Press). […] Extent of hybridization was determined by scanning with a prototype multi-frame CCD camera slides produced by Applied Precision, Inc. Images were processed by informatics and imported into the Inpharma database and analyzed using the MatLab data analysis package.

## C=CC[C@@H]1/C=C(\C)C[C@H](C)C[C@H](OC)[C@H]2O[C@@](O)(C(=O)C(=O)N3CCCC[C@H]3C(=O)O[C@H](/C(C)=C/[C@@H]3CC[C@@H](O)[C@H](OC)C3)[C@H](C)[C@@H](O)CC1=O)[C@H](C)C[C@@H]2OC [FK506]
[1]
  approximate relative potency of FK506 and Cyc A: approximately 63

## C[C@H]1c2cccc(O)c2C(=O)C2=C(O)[C@]3(O)C(=O)C(C(N)=O)=C(O)[C@@H](N(C)C)[C@@H]3[C@@H](O)[C@@H]21 [doxycycline]
Wild type yeast cells
  effect on the growth rate: no significant effect

## CN(Cc1cnc2nc(N)nc(N)c2n1)c1ccc(C(=O)N[C@@H](CCC(=O)O)C(=O)O)cc1 [methotrexate]
yeast
  growth defect: 50%
Yeast gene YOL031C; least squares fit of YOL031C expression response (log expression ratio amplitude)
  Hill function parameter a: −0.61
Yeast gene YOL031C; least squares fit of YOL031C expression response to six methotrexate exposure levels
  Hill function parameter n: 2
Yeast gene YOL031C; least squares fit of YOL031C expression response, methotrexate exposure levels 3-200 μm
  Hill function parameter log10(u0): 1.26
